Patent publication US20080214556A1 (priority 2007, published 2008)
Where two headings read alike, the source gives them in different places.

Tests used:
[1] = tested on: patients with non-ST elevation acute coronary syndrome; assay: MERLIN-TIMI 36: efficacy endpoints (CV death, MI, recurrent ischemia, failure of therapy); assay type: in vivo, human
From the text: The MERLIN-TIMI 36 primary efficacy endpoint (ITT) time from randomization to first occurrence of cardiovascular death, myocardial infarction, or recurrent ischemia data is shown in Table 11 below (and FIGS. 4 and 5).
The MERLIN-TIMI 36 major secondary efficacy endpoint (ITT) time from randomization to first occurrence of cardiovascular death, myocardial infarction, or severe recurrent ischemia data is shown in Table 12 below (and FIGS. 6 and 7).
The secondary efficacy endpoint time from randomization to failure of therapy (cardiovascular death, […], recurrent ischemia, positive Holter for ischemia, New/Worsening heart failure, or early+ETT) data from MERLIN-TIMI 36 is shown in Table 14 below (and FIGS. 8 and 9).
The secondary efficacy endpoint (ITT) incidence at 30 days of cardiovascular death, myocardial infarction, severe recurrent ischemia, or positive Holter for ischemia data from MERLIN-TIMI 36 is shown in Table 15 below.
The data for time from randomization to first occurrence of cardiovascular death or myocardial infarction from MERLIN-TIMI 36 is shown in Table 20 below. For relative risk of CV death, MI, or recurrent ischemia by subgroup, see FIG. 10. For relative risk of CV death, MI, or severe recurrent ischemia by subgroup, see FIG. 11. For relative risks of failure of therapy by subgroup, see FIG. 12.

[2] = tested on: patients with non-ST elevation acute coronary syndrome; assay: MERLIN-TIMI 36: Seattle Angina Questionnaire scores at 4 months; assay type: in vivo, human; details: ITT, N 2558
From the text: The MERLIN-TIMI 36 secondary efficacy endpoint (ITT) Seattle Angina Questionnaire scores at 4 months for anginal frequency scale are shown in Table 16 below, and scores for physical limitation scale are shown in Table 17 below.

[3] = tested on: patients with non-ST elevation acute coronary syndrome; assay: MERLIN-TIMI 36: ischemia on Holter / continuous ECG (CECG) monitoring; assay type: in vivo, human; details: ranolazine vs placebo
Method: At randomization, 6355 patients (99%) had 3-lead CECG monitoring initiated (median duration 6.9 days). The primary CECG endpoint was the rate of ST dep≧1 mm from baseline lasting ≧1 minute with heart rate at onset <100 bpm. Exploratory analyses using ST dep≧0.5 mm were also performed.

[4] = tested on: patients with non-ST elevation acute coronary syndrome; assay: MERLIN-TIMI 36: arrhythmias on 7 day continuous ECG (Holter) recording; assay type: in vivo, human
Method: The safety endpoint data for incidence of clinically significant arrhythmias during 7 day Holter monitoring from MERLIN-TIMI 36 is shown in Table 24 below.
Continuous ECG (Holter) recording was performed for the first 7 days after randomization. Because of the known prolongation of the QT interval with ranolazine, analyses of a prespecified set of arrhythmias were a major objective of the trial. All arrhythmias were evaluated in the TIMI ECG Core Laboratory by cardiologists blinded to treatment and outcomes.
Continuous ECG (cECG or Holter) recording was performed for the first 7 days after randomization. Prespecified arrhythmia analyses were evaluated by a core laboratory blinded to treatment and outcomes.

[5] = tested on: patients with non-ST elevation acute coronary syndrome; assay: MERLIN-TIMI 36: adverse events; assay type: in vivo, human; details: n = 3268
[6] = tested on: patients with non-ST elevation acute coronary syndrome; assay: MERLIN-TIMI 36: HbA1c and hyperglycemia; assay type: in vivo, human
From the text: The proportion of patients in the MERLIN-TIMI 36 study with HbA1C≧7% is shown in Table 28 below (and see FIG. 15).
The proportion of patients with HbA1C≧7% (with diabetes or no diabetes) at various times during the MERLIN-TIMI 36 study is shown in Table 29 below (and FIG. 16).
HbA1c data are reported as least-square means. Patients categorized as “diabetic” had been diagnosed as diabetic before or at the time of randomization. Patients categorized as “no diabetes” had not been diagnosed as diabetic before or at the time of randomization. Some patients characterized as “no diabetes” may have been diagnosed as “diabetic” during the trial; however, these patients are still listed in the “no diabetes” category in FIG. 4B.

[7] = tested on: patients with non-ST elevation acute coronary syndrome
[8] = ITT, n = 3279, major secondary efficacy endpoint
[9] = ITT, n = 3279, primary efficacy endpoint
[10] = placebo vs ranolazine, cECG monitoring
[11] = patients with DM treated with ranolazine

COc1ccccc1OCC(O)CN1CCN(CC(=O)Nc2c(C)cccc2C)CC1 (racemic) [Ranolazine, (±)—N-(2,6-dimethylphenyl)-4-[2-hydroxy-3-(2-methoxyphenoxy)-propyl]-1-piperazineacetamide]
Incidence (Kaplan-Meier estimate) of CV death or MI ([1]; 30 days, ITT): 4.2%
Incidence (Kaplan-Meier estimate) of CV death, MI, or recurrent ischemia ([1]; 30 days, ITT): 7.7%
Incidence (Kaplan-Meier estimate) of CV death, MI, or severe recurrent ischemia ([1]; 30 days, ITT): 7.5%
Incidence (Kaplan-Meier estimate) of CV death or MI ([1]; 60 days, ITT): 5.3%
Incidence (Kaplan-Meier estimate) of CV death, MI, or recurrent ischemia ([1]; 60 days, ITT): 9.9%
Incidence (Kaplan-Meier estimate) of CV death, MI, or severe recurrent ischemia ([1]; 60 days, ITT): 9.4%
Endpoint-defining events: CV death (%) ([1]; ITT, n = 3279, CV death or MI endpoint): 30.5%
Pts with events: first occurrence of CV death or MI ([1]; ITT, n = 3279, additional efficacy endpoint): 338
Endpoint-defining events: CV death (%) [1, 8]: 14.6%
Pts with events: first occurrence of CV death, MI, or severe recurrent ischemia [1, 8]: 602
Endpoint-defining events: CV death (%) [1, 9]: 12.5%
Pts with events: first occurrence of CV death, MI, or recurrent ischemia [1, 9]: 695
Pts with events: CV death, MI, severe RI, or positive Holter for ischemia (%) ([1]; incidence at 30 days, ITT, n = 3279): 23%
Primary endpoint occurred in (% of patients) ([1]; ranolazine group, Example 7): 21.8%
HR for cardiovascular death or MI ([1]; ranolazine vs placebo): 0.99
HR for recurrent ischemia ([1]; ranolazine vs placebo): 0.87
HR for the primary endpoint ([1]; ranolazine vs placebo): 0.92
Relative risk (SE): CV death, MI, or severe recurrent ischemia ([1]; ranolazine vs placebo, ITT, major secondary efficacy endpoint): 0.982 (0.06)
HR for worsening angina ([1]; women, ranolazine vs placebo): 0.61
Seattle Angina Questionnaire, Anginal Frequency Scale: Median [2]: 100
RR for primary CECG endpoint events ([3]; >72 hours after randomization): 0.86
RR for CECG ischemic events ([3]; lower ischemic threshold of 0.5 mm): 0.91
Any Clinically Significant Arrhythmia during 7 Day Holter (%) ([4]; All Patients Dosed, n = 3268): 71.3%
Bradycardic episode during 7 Day Holter (%) ([4]; All Patients Dosed, n = 3268): 38.5%
New onset atrial fibrillation during 7 Day Holter (%) ([4]; All Patients Dosed, n = 3268): 1.7%
Supraventricular tachycardia during 7 Day Holter (%) ([4]; Any SVT >= 120 bpm, n = 3268): 43.2%
Ventricular tachycardia during 7 Day Holter (%) ([4]; Any VT >= 100 bpm >= 3 beats, n = 3268): 29.0%
Pause > 3 secs (%) ([4]; Holter, first 7 days, n = 3162): (3.1) %
VT >= 8 beats (<30 secs) (%) ([4]; Holter, first 7 days, n = 3162): (5.5) %
New-onset atrial fibrillation (% of patients) ([4]; cECG first 7 days, Example 9): 1.7%
Polymorphic VT >= 8 beats (%) ([4]; cECG monitoring): (1.2) %
Sustained VT (>=30 sec) (%) ([4]; cECG monitoring): (0.44) %
VT ≧ 8 beats (<30 sec) (%) ([4]; cECG monitoring): (5.3) %
VT ≧ 8 beats (<30 sec) (%) ([4]; cECG monitoring, listed as ranolazine): 5.3%
Polymorphic VT >= 8 beats: Δ (%) [4, 10]: −21%
Sustained VT (>=30 sec): Δ [4, 10]: 0
VT ≧ 3 beats (≧100 b/m): Δ (%) [4, 10]: −17%
VT ≧ 4 beats (≧100 b/m): Δ (%) [4, 10]: −30%
VT ≧ 8 beats (<30 sec): Δ (%) [4, 10]: −37%
Adverse event: Angina pectoris (%) ([5]; AE summary > 4% incidence): (8%)
Adverse event: Angina unstable (%) ([5]; AE summary > 4% incidence): (10%)
Adverse event: Asthenia (%) ([5]; AE summary > 4% incidence): (5%)
Adverse event: Cardiac failure (%) ([5]; AE summary > 4% incidence): (5%)
Adverse event: Chest pain (%) ([5]; AE summary > 4% incidence): (11%)
Adverse event: Constipation (%) ([5]; AE summary > 4% incidence): (9%)
Adverse event: Dizziness (%) ([5]; AE summary > 4% incidence): (13%)
Adverse event: Fatigue (%) ([5]; AE summary > 4% incidence): (4%)
Adverse event: Headache (%) ([5]; AE summary > 4% incidence): (7%)
Adverse event: Hypotension (%) ([5]; AE summary > 4% incidence): (5%)
Adverse event: Nausea (%) ([5]; AE summary > 4% incidence): (9%)
Serious adverse event: ACS (%) ([5]; SAEs ≧ 1% incidence): (2%)
Serious adverse event: Acute MI (%) ([5]; SAEs ≧ 1% incidence): (3%)
Serious adverse event: Angina pectoris (%) ([5]; SAEs ≧ 1% incidence): (4%)
Serious adverse event: Angina unstable (%) ([5]; SAEs ≧ 1% incidence): (8%)
Serious adverse event: Atrial fibrillation (%) ([5]; SAEs ≧ 1% incidence): (1%)
Serious adverse event: Cardiac failure (%) ([5]; SAEs ≧ 1% incidence): (4%)
Serious adverse event: Cardiac failure congestive (%) ([5]; SAEs ≧ 1% incidence): (1%)
Serious adverse event: Chest pain (%) ([5]; SAEs ≧ 1% incidence): (2%)
Serious adverse event: MI (%) ([5]; SAEs ≧ 1% incidence): (4%)
Serious adverse event: Syncope (%) ([5]; SAEs ≧ 1% incidence): (1%)
Patients early prematurely withdrawn due to AEs (%) ([5]; Safety - All Patients Dosed): (13%)
Patients with AEs (%) ([5]; Safety - All Patients Dosed): (76%)
Patients with AEs leading to death (%) ([5]; Safety - All Patients Dosed): (5%)
Patients with serious AEs (SAEs) (%) ([5]; Safety - All Patients Dosed): (34%)
Patients with study drug-related AEs (%) ([5]; Safety - All Patients Dosed): (30%)
Patients with HbA1C ≧ 7% (%) ([6]; Baseline (In-Hospital visit prior to randomization), all patients dosed): 24%
Patients with HbA1C ≧ 7% (%) ([6]; Diabetes at enrollment, n = 1098, Baseline): 57%
Patients with HbA1C ≧ 7% (%) ([6]; Diabetes at enrollment, n = 1098, Final Visit): 42%
Patients with HbA1C ≧ 7% (%) ([6]; Diabetes at enrollment, n = 1098, Month 4): 41%
Patients with HbA1C ≧ 7% (%) ([6]; Diabetes at enrollment, n = 1098, Month 8): 44%
Patients with HbA1C ≧ 7% (%) ([6]; Diabetes at enrollment, n = 1098, Month 16): 48%
Patients with HbA1C ≧ 7% (%) ([6]; Final Visit, all patients dosed): 17%
Patients with HbA1C ≧ 7% (%) ([6]; Month 4, all patients dosed): 17%
Patients with HbA1C ≧ 7% (%) ([6]; Month 8, all patients dosed): 18%
Patients with HbA1C ≧ 7% (%) ([6]; Month 16, all patients dosed): 20%
Patients with HbA1C ≧ 7% (%) ([6]; No Diabetes at enrollment, n = 2170, Baseline): 6%
Patients with HbA1C ≧ 7% (%) ([6]; No Diabetes at enrollment, n = 2170, Final Visit): 6%
Patients with HbA1C ≧ 7% (%) ([6]; No Diabetes at enrollment, n = 2170, Month 4): 5%
Patients with HbA1C ≧ 7% (%) ([6]; No Diabetes at enrollment, n = 2170, Month 8): 6%
Patients with HbA1C ≧ 7% (%) ([6]; No Diabetes at enrollment, n = 2170, Month 16): 7%
HbA1c ([6]; at 4 months, 4306 patients with serial measurements, least-square means): 5.9%
HR for worsening of hyperglycemia ([6]; diabetic patients, ranolazine vs placebo): 0.63
HbA1c after decline (declined to) [6, 11]: 6.8
HbA1c before decline (declined from) [6, 11]: 7.2
Patients achieving HbA1c<7% ([6]; patients with DM, at 4 months): 59%
HR for new fasting glucose >110 mg/dL or HbA1c≧6% ([6]; patients without DM, ranolazine vs placebo): 0.68
Incidence (Kaplan-Meier estimate) of death from any cause ([7]; 30 days): 1.8%
Incidence (Kaplan-Meier estimate) of death or CV hospitalization ([7]; 30 days): 9.2%
Incidence (Kaplan-Meier estimate) of death from any cause ([7]; 60 days): 2.2%
Incidence (Kaplan-Meier estimate) of death or CV hospitalization ([7]; 60 days): 15.0%
Incidence (Kaplan-Meier estimate) of death from any cause ([7]; 180 days): 3.4%
Incidence (Kaplan-Meier estimate) of death from any cause ([7]; 360 days): 5.3%
Incidence (Kaplan-Meier estimate) of death from any cause ([7]; 540 days): 7.0%
Pts with events: death from any cause ([7]; All Patients Dosed, n = 3268): 172
Pts with events: first occurrence of death or CV hospitalization ([7]; All Patients Dosed, n = 3268): 1037
Endpoint-defining events: Death (%) ([7]; death or CV hospitalization endpoint, n = 3268): 10.7%
Endpoint-defining events: CV hospitalization (%) ([7]; human, in vivo): 89.3%
Symptomatic documented arrhythmias (% of patients) ([7]; human, in vivo): 3.0%
HR for total mortality ([7]; ranolazine vs placebo): 0.99
